Laboratory results reported in US12421254B2, “KRAS modulators and uses thereof” (Quanta Therapeutics, Inc., priority 2023, dated 2025).

Legend:
[1] = biological target: GST-tagged KRAS-G12D (2-169) (Homo sapiens, UniProt P01116, G12D); test: Nucleotide exchange assay (NEA), SOS-mediated, HTRF, KRAS G12D; format: biochemical; conditions: Table 4; IC50 extracted at 30 min; 20 nM SOScat; read-out: NEA G12D IC50
Method in brief: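 SOS1cat-driven loading of fluorescent GTP-DY-647P1 (150 nM) onto GST-KRAS-G12D (2-169, 0.25 nM) read by time-resolved FRET; SOScat 20 nM, compound preincubated with KRAS 1 h at RT. Signal blanked to no-SOS reactions, normalized to DMSO; IC50 fitted from the 30-min read.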

[2] = biological target: GST-tagged KRAS-G12V (2-169) (Homo sapiens, UniProt P01116, G12V); test: Nucleotide exchange assay (NEA), SOS-mediated, HTRF, KRAS G12V; format: biochemical; conditions: Table 4; IC50 extracted at 90 min; 80 nM SOS
Method in brief: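 Exchange onto fluorescent GTP-DY-647P1 (150 nM final) catalysed by 80 nM SOS1cat was followed by Tb-anti-GST HTRF at RT for up to 90 min, after 1 h compound pre-incubation with 0.25 nM GST-tagged KRAS-G12V (2-169), pH 7.3. DMSO = 0%, no-SOS blank = 100%; 4-parameter IC50 taken at 90 min.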

[3] = tested on: phospho-ERK in GP2D (KRAS-G12D) cells; test: pERK In Cell Western (ICW) assay (Method B), GP2D; format: cell-based; conditions: GP2d, 3 h, Table 4
Experimental: (§1) pERK ICW is a high throughput screening assay to evaluate the cellular potency of mutant KRAS small molecule inhibitors. KRAS mutant cell lines AGS, GP2D (KRAS-G12D) as well as SW620 (KRAS-G12V) were purchased from ATCC and maintained respectively in RPMI/DMEM/RPMI medium supplemented with 10% fetal bovine serum.
(§2) Cells grown in exponential phase were trypsinized, resuspended in fresh media, and viable cells were counted using a cell counter with Trypan Blue (BioRad TC20). Cells were seeded into 384-well plate (Greiner 781091) at density of 5,000 cells/well for AGS and 10,000 cells/well for GP2D/SW620 and allowed to grow overnight in a 37° C. CO2 incubator. The next day, compounds were dispensed into wells with a ½ log, 9-point serial dilution using a Tecan D300e dispenser and incubated for 3 hours in a 37° C. CO2 incubator. Cells were then fixed with paraformaldehyde (Electron Microscopy Sciences, 15710, 4% final concentration) for 30 min, permeabilized with wash buffer (1×PBS+0.1% Triton X-100) for 30 min and blocked with Odyssey blocking buffer (Li—COR 927-70001) for 1 hour, all at room temperature (RT). Phospho-ERK antibody (CST 4370L) was diluted 1:500 in Odyssey T20 (PBS) antibody diluent (Li—COR 927-75001) and incubated with cells overnight at 4° C. The next day, plates were washed 5× with wash buffer, incubated with IRDye 800 CW, Goat anti-Rabbit secondary antibody (Li—COR 926-32211, 1:800) and DRAQ5 (CST 4084L, 1:5,000) diluted in Odyssey T20 (PBS) antibody diluent for 1 hour, washed 5×, and imaged on an Odyssey CLx imaging system.
(§3) For data analysis, signal intensities from 800 (phosphor-ERK) and 700 (DRAQ5) channels were extracted, and phospho-ERK signals were normalized to DRAQ5 signals for each well and percent of blank control values were computed. Data were then imported into Graphpad Prism to compute half-maximal inhibitory concentrations (IC50) using a 4-parameter variable slope model. Z-factor for each plate was computed from signals derived from wells treated with either DMSO or 5 μM of control compound. AGS pERK ICW (Method B) IC50 (uM) values of selected compounds are depicted in Table 2 with compounds having a value ≥0.001 uM to 0.01 uM as ++++; ≥0.01 uM to 0.1 uM as +++; ≥0.1 uM to 1 uM as ++; ≥1 uM to 10 uM as + and ≥10 uM as NA.

[4] = tested on: phospho-ERK in SW620 (KRAS-G12V) cells; test: pERK In Cell Western (ICW) assay (Method B), SW620; format: cell-based; conditions: Homo sapiens, SW-620, 3 h, Table 4
Experimental: as §1, §2, §3

Sequence of GST-tagged KRAS-G12V (2-169) (P01116 2-169 isoform P01116-2 G12V): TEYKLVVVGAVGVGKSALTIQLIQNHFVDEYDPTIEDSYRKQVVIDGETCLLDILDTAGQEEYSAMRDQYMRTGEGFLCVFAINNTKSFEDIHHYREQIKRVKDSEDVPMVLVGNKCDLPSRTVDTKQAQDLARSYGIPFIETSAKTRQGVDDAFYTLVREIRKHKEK
Sequence of GST-tagged KRAS-G12D (2-169) (P01116 2-169 isoform P01116-2 G12D): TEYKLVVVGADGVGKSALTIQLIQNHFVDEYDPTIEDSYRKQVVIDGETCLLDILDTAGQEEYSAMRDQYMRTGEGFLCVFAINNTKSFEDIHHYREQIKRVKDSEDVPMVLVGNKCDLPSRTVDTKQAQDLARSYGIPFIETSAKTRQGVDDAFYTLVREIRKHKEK

`CC(c1cccnc1N)N(C)c1nc(OCC2(CN3CCOCC3)CC2)nc(N2CC3(C2)SCc2sc(N)c(C#N)c23)n1` (centres unmarked) [Compound 128, 2-amino-1′-[4-[1-(2-amino-3-pyridyl)ethyl-methyl-amino]-6-[[1-(morpholinomethyl)cyclopropyl]methoxy]-1,3,5-triazin-2-yl]spiro[6H-thieno[3,4-b]thiophene-4,3′-azetidine]-3-carbonitrile] was tested, and the IC50 [1] was 10 to 100 nM, the IC50 [2] was under 10 nM and the IC50 [3] was 100 to 1000 nM. It also gave an IC50 [4] of 10 to 100 nM.
Work on `C[C@H](c1cccnc1N)N(CCF)c1nc(OC[C@@]23CCCN2C[C@H](F)C3)nc(N2CC3(C2)SCc2sc(N)c(C#N)c23)n1` [Compound 180, 2′-amino-1-(4-(((R)-1-(2-aminopyridin-3-yl)ethyl)(2-fluoroethyl)amino)-6-(((2R,7aS)-2-fluorotetrahydro-1H-pyrrolizin-7a(5H)-yl)methoxy)-1,3,5-triazin-2-yl)-6′H-spiro[azetidine-3,4′-thieno[3,4-b]thiophene]-3′-carbonitrile] yielded an IC50 [1] of under 10 nM, an IC50 [2] of under 10 nM and an IC50 [3] of under 10 nM. For the same compound, the IC50 [4] was under 10 nM.
Compound `CC(=O)C(O)(O)C(=O)N1[C@@H]2CC[C@H]1CN(c1nc(OC[C@@]34CCCN3C[C@H](F)C4)nc(N3CC4(C3)SCc3sc(N)c(C#N)c34)n1)C2` [Compound 159, 2-amino-1′-[4-[(1R,5S)-8-(2,2-dihydroxy-3-oxo-butanoyl)-3,8-diazabicyclo[3.2.1]octan-3-yl]-6-[[(2R,8S)-2-fluoro-1,2,3,5,6,7-hexahydropyrrolizin-8-yl]methoxy]-1,3,5-triazin-2-yl]spiro[6H-thieno[3,4-b]thiophene-4,3′-azetidine]-3-carbonitrile] has an IC50 [1] of 10 to 100 nM, an IC50 [2] of 100 to 1000 nM and an IC50 [3] of 100 to 1000 nM. For the same compound, the IC50 [4] was 1000 to 20000 nM.
`CC(c1cn(C)nc1N)N(C)c1nc(OC[C@@]23CCCN2C[C@H](F)C3)nc(N2CC3(CCc4sc(N)c(C#N)c43)C2)n1` (stereo partly drawn) [Compound 157, amino-1′-[4-[1-(3-amino-1-methyl-pyrazol-4-yl)ethyl-methyl-amino]-6-[[(2R,8S)-2-fluoro-1,2,3,5,6,7-hexahydropyrrolizin-8-yl]methoxy]-1,3,5-triazin-2-yl]spiro[5,6-dihydrocyclopenta[b]thiophene-4,3′-azetidine]-3-carbonitrile] showed an IC50 [1] of 100 to 1000 nM, an IC50 [2] of 10 to 100 nM and an IC50 [3] of 1000 to 20000 nM. It also gave an IC50 [4] of 1000 to 20000 nM.
With `N#Cc1c(N)sc2c1C1(CC2)CN(c2nc(OC[C@@]34CCCN3C[C@H](F)C4)nc(N3CCCCC3C(N)=O)n2)C1` (stereo partly drawn) [Compound 40, 1-[4-(2-amino-3-cyano-spiro[5,6-dihydrocyclopenta[b]thiophene-4,3′-azetidine]-1′-yl)-6-[[(2R,8S)-2-fluoro-1,2,3,5,6,7-hexahydropyrrolizin-8-yl]methoxy]-1,3,5-triazin-2-yl]piperidine-2-carboxamide] the IC50 [1] was 100 to 1000 nM, the IC50 [2] was 1000 to 20000 nM and the IC50 [3] was 1000 to 20000 nM. For the same compound, the IC50 [4] was at least 20000 nM.
`N#Cc1c(N)sc2c1C1(CC2)CN(c2nc(OC[C@@]34CCCN3C[C@H](F)C4)nc(N3CCCOC[C@H]3CO)n2)C1` [Compound 69, 2-amino-1′-[4-[[(2R,8S)-2-fluoro-1,2,3,5,6,7-hexahydropyrrolizin-8-yl]methoxy]-6-[(3R)-3-(hydroxymethyl)-1,4-oxazepan-4-yl]-1,3,5-triazin-2-yl]spiro[5,6-dihydrocyclopenta[b]thiophene-4,3′-azetidine]-3-carbonitrile] was tested, and the IC50 [1] was 10 to 100 nM, the IC50 [2] was 10 to 100 nM and the IC50 [3] was 1000 to 20000 nM. The IC50 [4] was 1000 to 20000 nM.
`CCN(c1nc(OC[C@@H]2CCCN2C)nc(N2CC3(C2)SCc2sc(N)c(C#N)c23)n1)[C@H](C)c1cccnc1N` [Compound 207, 2-amino-1′-[4-[[(1R)-1-(2-amino-3-pyridyl)ethyl]-ethyl-amino]-6-[[(2S)-1-methylpyrrolidin-2-yl]methoxy]-1,3,5-triazin-2-yl]spiro[6H-thieno[3,4-b]thiophene-4,3′-azetidine]-3-carbonitrile] was tested, and the IC50 [1] was under 10 nM, the IC50 [2] was under 10 nM and the IC50 [3] was 10 to 100 nM. For the same compound, the IC50 [4] was 10 to 100 nM.
`N#Cc1c(N)sc2c1C1(CN(c3nc(OC[C@@]45CCCN4C[C@H](F)C5)nc(N(CC(N)=O)Cc4cccnc4N)n3)C1)SC2` [Compound 194, 2-[[4-(2-amino-3-cyano-spiro[6H-thieno[3,4-b]thiophene-4,3′-azetidine]-1′-yl)-6-[[(2R,8S)-2-fluoro-1,2,3,5,6,7-hexahydropyrrolizin-8-yl]methoxy]-1,3,5-triazin-2-yl]-[(2-amino-3-pyridyl)methyl]amino]acetamide] gave an IC50 [1] of under 10 nM, an IC50 [2] of under 10 nM and an IC50 [3] of 1000 to 20000 nM. The IC50 [4] was 1000 to 20000 nM.
Compound `N#Cc1c(N)sc2c1C1(CC2)CN(c2nc(OC[C@@]34CCCN3C[C@H](F)C4)nc(N(CCO)Cc3cn[nH]c3)n2)C1` [Compound 137, 2-amino-1′-[4-[[(2R,8S)-2-fluoro-1,2,3,5,6,7-hexahydropyrrolizin-8-yl]methoxy]-6-[2-hydroxyethyl(1H-pyrazol-4-ylmethyl)amino]-1,3,5-triazin-2-yl]spiro[5,6-dihydrocyclopenta[b]thiophene-4,3′-azetidine]-3-carbonitrile] has an IC50 [1] of 100 to 1000 nM, an IC50 [2] of 10 to 100 nM and an IC50 [3] of 1000 to 20000 nM. It also gave an IC50 [4] of 1000 to 20000 nM.
`CC(c1ccn[nH]1)N(C)c1nc(OC[C@@]23CCCN2C[C@H](F)C3)nc(N2CC3(CCc4sc(N)c(C#N)c43)C2)n1` (stereo partly drawn) [Compound 129, 2-amino-1′-[4-[methyl-[1-(1H-pyrazol-5-yl)ethyl]amino]-6-[[(2R,8S)-2-fluoro-1,2,3,5,6,7-hexahydropyrrolizin-8-yl]methoxy]-1,3,5-triazin-2-yl]spiro[5,6-dihydrocyclopenta[b]thiophene-4,3′-azetidine]-3-carbonitrile] showed an IC50 [1] of 100 to 1000 nM, an IC50 [2] of under 10 nM and an IC50 [3] of 1000 to 20000 nM. For the same compound, the IC50 [4] was 1000 to 20000 nM.
With `N#CCC12CC1CCN(c1nc(OC[C@@]34CCCN3C[C@H](F)C4)nc(N3CC4(CCc5sc(N)c(C#N)c54)C3)n1)C2` (stereo partly drawn) [Compound 43, 2-amino-1′-[4-[1-(cyanomethyl)-3-azabicyclo[4.1.0]heptan-3-yl]-6-[[(2R,8S)-2-fluoro-1,2,3,5,6,7-hexahydropyrrolizin-8-yl]methoxy]-1,3,5-triazin-2-yl]spiro[5,6-dihydrocyclopenta[b]thiophene-4,3′-azetidine]-3-carbonitrile] the IC50 [1] was 10 to 100 nM, the IC50 [2] was 10 to 100 nM and the IC50 [3] was 1000 to 20000 nM. For the same compound, the IC50 [4] was 1000 to 20000 nM.
`C[C@@]1(O)CCCN(c2nc(OC[C@@]34CCCN3C[C@H](F)C4)nc(N3CC4(CCCc5sc(N)c(C#N)c54)C3)n2)C1` [Compound 30, 2-amino-1′-[4-[[(2R,8S)-2-fluoro-1,2,3,5,6,7-hexahydropyrrolizin-8-yl]methoxy]-6-[(3R)-3-hydroxy-3-methyl-1-piperidyl]-1,3,5-triazin-2-yl]spiro[6,7-dihydro-5H-benzothiophene-4,3′-azetidine]-3-carbonitrile] was tested, and the IC50 [1] was 10 to 100 nM, the IC50 [2] was 10 to 100 nM and the IC50 [3] was 100 to 1000 nM.
For `N#CNC1CCCN(c2nc(OC[C@@]34CCCN3C[C@H](F)C4)nc(N3CC4(CCc5sc(N)c(C#N)c54)C3)n2)C1` (stereo partly drawn) [Compound 33, [1-[4-(2-amino-3-cyano-spiro[5,6-dihydrocyclopenta[b]thiophene-4,3′-azetidine]-1′-yl)-6-[[(2R,8S)-2-fluoro-1,2,3,5,6,7-hexahydropyrrolizin-8-yl]methoxy]-1,3,5-triazin-2-yl]-3-piperidyl]cyanamide], the IC50 [1] was 10 to 100 nM, the IC50 [2] was under 10 nM and the IC50 [3] was 100 to 1000 nM.
